Source: patent US20250281610A1, “P2RY2 ACTIVITY MODULATORS” (Deutsches Krebsforschungszentrum Stiftung des öffentlichen …, priority 2022, published 2025)

Columns and labels:
[1] = tested on: CEA-specific CAR transduced T cells co-cultured with SW480 cells; assay: T cell activation in co-culture of CEA-specific CAR-T cells with SW480 cells; format: cell-based, human; details: 10 μM AR-C, 24 hours, CD3+CD8+ or CD3+CD4+ population (FIG. 19)
Protocol: FIG. 19. Effects of P2RY2 agonist and P2RY2 antagonist on T cell activity in T cell-cancer cell co-cultures. T cells transduced with a CEA-specific CAR (CAR-T) were co-cultured with genetically edited SW480 cells for 24 hours in the absence or presence of 40 μM ATP, 200 μM ATPγS, 10 μM Diquafosol, 5 μM Denufosol and 10 μM AR-C 118925XX (AR-C). Control cells: SW480 cells transduced with non-targeting sgRNA and Cas9 (gNT); P2RY2 deficient cells: SW480 cells transduced with P2RY2-targeting sgRNA and Cas9 (gP2RY2-3, gP2RY2-4); B7-H3 (CD276) deficient cells: SW480 cells transduced with B7-H3-targeting sgRNA and Cas9 (gCD276-1); P2RY2 and B7-H3 double deficient cells: SW480 cells transduced with P2RY2-targeting sgRNA, B7-H3-targeting sgRNA, and Cas9 (gCD276-1 gP2RY2-3 DKO, gCD276-1 gP2RY2-4 DKO); P2RY2 overexpression cells: SW480 cells transduced with the open reading frame of P2RY2 (P2RY2-OE); B7-H3 overexpression cells: SW480 cells transduced with the open reading frame of CD276 (CD276-OE). Transduced cancer cells were selected by antibiotics according to antibiotic resistance genes carried by the lentiviral constructs. Flow cytometry analysis of expression of CD25 and CD69 and production of IFNγ within the CD3+CD8+ or CD3+CD4+ cell population is shown (values indicate the percentages of positive cells).
(§1) MART-1 specific T cells were generated as described (Mezzadra et al., Nature 549, 106-110 (2017); Jorritsma et al., Blood 110 (10): 3564-3572. (2007)). To generate CD33-specific chimeric antigen receptor (CAR) T cells and CEA-specific CAR-T cells, a CD33Hul95-CD28Z CAR (described in WO 2019/178382) cassette and MFE-23 (described in US20050147614A1)-CD28Z CAR were separately cloned into retroviral vectors, and the resulting virus was used to transduce T cells as described (Mezzadra et al., Nature 549, 106-110 (2017); Jorritsma et al., Blood 110 (10): 3564-3572. (2007)).
The open reading frames of transcripts of P2RY2 (ENST00000393597.7) or CD276 (ENST00000318443.10), were ordered as a codon optimized gBlock Gene Fragment (Integrated DNA Technologies or Twist Bioscience) and cloned into a lentiviral vector containing a blasticidin selection cassette. Constructs were verified by Sanger sequencing.
(§2) MART1-specific CD8+ T cells and MART1 epitope-expressing cancer cells were mixed at a ratio of 1:16 to 1:1. CD33 CAR-T cells and CD33 expressing THP-1 cells were mixed at a ratio of 1:16 to 1:4. CEA CAR-T cells and CEA expressing SW480 cells were mixed at a ratio of 1:1. Next, cells were centrifugated at 1,600 g for 3 min and incubated at 37° C. and 5% CO2 for 12-72 hours. T cell activation was assessed by surface staining with anti-CD137-BV421 (4-1BB, Biolegend), anti-CD137-PE/Cy7 (4-1BB, Biolegend), anti-CD69-APC/Fire™ 750 (FN50, Biolegend), anti-CD25-AF700 (BC96, Biolegend), anti-CD25-APC (BC96, Biolegend) antibodies and intracellular staining with anti-IL-2-PE/Cy7 (MQ1-17H12, Biolegend), anti-IFN-7-BV421 (4S.B3, Biolegend), anti-TNF-α-BV785 (MAb11, Biolegend), anti-TNF-α-APC (MAb11, Biolegend) antibodies, followed by flow cytometry analysis. For intracellular staining, brefeldin A (Biolegend) was added to the cell culture medium 4 h before cells were harvested. The viability of cancer cells that grow in suspension including THP-1 cells was assessed by flow cytometry-based absolute cell counting using AccuCount beads (Spherotech). For adherent cancer cells including BxPC3, MIA PaCa-2, MDA-MB-231 and MCF7, the cell viability was quantified using CellTiter-Blue Cell Viability Assay (Promega).

BxPC3 cells = assay: Viability of BxPC3 cells in co-culture with MART-1-specific TCR-T cells (CellTiter-Blue); format: cell-based, human; details: single agent: 5 μM AR-C, 10 μg/ml atezolizumab or 10 μg/ml durvalumab, 6-24 hours (FIG. 11)
Source text: FIG. 11. […] Untreated cells served as the control.
as §1, with “T” for “T cells and CEA-specific CAR-T”, “was” for “and MFE-23 (described in US20050147614A1)-CD28Z CAR were separately”, “into a” for “into”, “vector,” for “vectors,”
as §2, with “to” for “to 1:1. CD33 CAR-T cells and CD33 expressing THP-1 cells were mixed at a ratio of 1:16 to”, “1:4.” for “1:4. CEA CAR-T cells and CEA expressing SW480 cells were mixed at a ratio of 1:1.”, “Biolegend),” for “Biolegend), anti-CD137-PE/Cy7 (4-1BB, Biolegend),”, “anti-CD25-AF700” for “anti-CD25-AF700 (BC96, Biolegend), anti-CD25-APC”, “anti-TNF-α-BV785” for “anti-TNF-α-BV785 (MAb11, Biolegend), anti-TNF-α-APC”, “BxPC3” for “BxPC3, MIA PaCa-2, MDA-MB-231”

Cc1ccc2c(c1)C=Cc1cc(C)ccc1C2c1cn(Cc2ccc(C(=O)Nc3nn[nH]n3)o2)c(=O)[nH]c1=S [AR-C 118925XX]
expression of T cell activation marker CD25 [1]: increased
expression of T cell activation marker CD69 [1]: increased
expression of T cell activation marker IFN-7 [1]: increased
viability of BxPC3 cells (BxPC3 cells): reduced
